# Laboratory results as given in patent publication US6914045B2, “Glycopeptide antibiotics” (Wyeth Holdings Corporation, priority 2001, dated 2005).
# Legend:
# Test in all cases: in vitro antibacterial evaluation, MIC by broth dilution
# Assay type in all cases: cell-based
# [1] = test system: Escherichia coli; conditions: 18 hours at 35° C.
# How it was run: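 Read-out: the lowest concentration at which the test strain fails to grow. Serial dilutions (64-0.06 μg/mL) in Muller-Hinton II […], 5×10^5 CFU/mL inoculum, NCCLS M7-A2 procedure.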
# [2] = test system: Streptococcus sp.; conditions: broth dilution, 18 hours at 35° C.
# How it was run: (§1)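 Inoculum 5×10^5 CFU/mL; concentrations 64 to 0.06 μg/mL; MIC defined as lowest inhibitory level. Conducted by broth dilution under NCCLS guidelines.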
# [3] = test system: Staphylococcus sp.; conditions: broth dilution, 18 hours at 35° C.
# How it was run: as §1
# [4] = test system: Enterococcus sp.; conditions: broth dilution, 18 hours at 35° C.
# How it was run: as §1
structure (smiles),measurement,setting,value
"CC(C)CC(=O)OC1C(OC2C(CO)OC(Oc3ccc(CC4NC(=O)C(C(C)c5ccc(F)cc5)NC(=O)CNC(=O)C(CO)NC(=O)C(C(O)C5CNC(=N)N5C5OC(CO)C(O)C(O)C5O)NC(=O)C(C(O)C5CNC(=N)N5)NC4=O)cc3)C(O)C2O)OC(CO)C(O)C1O (stereo not drawn) [Example 261b, Cyclo[glycyl-4-fluoro-β-methylphenylalanyl-O-[4-O-[2-O-(3-methylbutanoyl)hexopyranosyl]-hexopyranosyl]tyrosyl-3-(2-iminoimidazolidin-4-yl)seryl-3-(3-hexopyranosyl-2-imino-imidazolidin-4-yl)serylseryl]]",MIC Escherichia coli (ATCC 25922),[1]; Escherichia coli (ATCC 25922),>64 µg/mL
same,MIC Escherichia coli (GC 4559),[1]; Escherichia coli (GC 4559),>64 µg/mL
same,MIC Escherichia coli (GC 4560),[1]; Escherichia coli (GC 4560),4 µg/mL
same,MIC Streptococcus agalactiae (GC 4564),[2]; strain GC 4564,8 µg/mL
same,MIC Streptococcus pyogenes (ID-3187),[2]; strain ID-3187,4 µg/mL
same,MIC Coagulase Negative Staphylococcus (GC 4547),[3],8 µg/mL
same,MIC Coagulase Negative Staphylococcus (GC 4548),[3],4 µg/mL
same,MIC Coagulase Negative Staphylococcus (GC 4549),[3],4 µg/mL
same,MIC Coagulase Negative Staphylococcus (GC 4551),[3],8 µg/mL
same,MIC Staphylococcus aureus (ATCC 29213),[3],8 µg/mL
same,MIC Staphylococcus aureus (GC 1131),[3],16 µg/mL
same,MIC Staphylococcus aureus (GC 4541),[3],16 µg/mL
same,MIC Staphylococcus aureus (GC 4542),[3],16 µg/mL
same,MIC Staphylococcus aureus (GC 4544),[3],8 µg/mL
same,MIC Staphylococcus aureus (GC 4545),[3],16 µg/mL
same,MIC Staphylococcus aureus-SMITH (GC 4543),[3],8 µg/mL
same,MIC Staphylococcus haemolyticus (GC 4546),[3],8 µg/mL
same,MIC Staphylococcus aureus (ATCC 29213),[3]; strain ATCC 29213,8 µg/mL
same,MIC Staphylococcus aureus (GC 1131),[3]; strain GC 1131,16 µg/mL
same,MIC Staphylococcus aureus (GC 4541),[3]; strain GC 4541,16 µg/mL
same,MIC Staphylococcus aureus (GC 4542),[3]; strain GC 4542,16 µg/mL
same,MIC Staphylococcus aureus (GC 4544),[3]; strain GC 4544,8 µg/mL
same,MIC Staphylococcus aureus (GC 4545),[3]; strain GC 4545,16 µg/mL
same,MIC Enterococcus avium (GC 4558),[4]; Enterococcus avium (GC 4558),64 µg/mL
same,MIC Enterococcus faecalis (ATCC 29212),[4]; Enterococcus faecalis (ATCC 29212),>64 µg/mL
same,MIC Enterococcus faecalis (GC 4553),[4]; Enterococcus faecalis (GC 4553),64 µg/mL
same,MIC Enterococcus faecalis (GC 4554),[4]; Enterococcus faecalis (GC 4554),>64 µg/mL
same,MIC Enterococcus faecium (GC 2243),[4]; Enterococcus faecium (GC 2243),>64 µg/mL
same,MIC Enterococcus faecium (GC 4556),[4]; Enterococcus faecium (GC 4556),64 µg/mL
same,MIC Enterococcus faecium (GC 4557),[4]; Enterococcus faecium (GC 4557),16 µg/mL
same,MIC Enterococcus faecalis (ATCC 29212),[4]; strain ATCC 29212,>64 µg/mL
same,MIC Enterococcus faecalis (GC 2242),[4]; strain GC 2242,64 µg/mL
same,MIC Enterococcus faecium (GC 2243),[4]; strain GC 2243,>64 µg/mL
same,MIC Enterococcus faecalis (GC 4552),[4]; strain GC 4552,64 µg/mL
same,MIC Enterococcus faecalis (GC 4553),[4]; strain GC 4553,64 µg/mL
same,MIC Enterococcus faecalis (GC 4554),[4]; strain GC 4554,>64 µg/mL
same,MIC Enterococcus faecium (GC 4556),[4]; strain GC 4556,64 µg/mL
same,MIC Enterococcus faecium (GC 4557),[4]; strain GC 4557,16 µg/mL
same,MIC Enterococcus avium (GC 4558),[4]; strain GC 4558,64 µg/mL
